This note sets out measurements from patent publication US7183415B2, “Quinoline compound” (Takeda Pharmaceutical Company Limited, priority 2001, dated 2007).

Data set [1] has as its target T1, SLC-1 expression CHO cell membrane fraction (MCH receptor) (UniProt Q99705).
T1 construct: full-length coding regions in pAKKO-111H
The experiment in a line: Antagonistic activity of test compound using GTP γ S binding assay. It is filed as biochemical, human/rat. The following applies: inhibition of MCH-stimulated [35S]-GTPγS binding, 25° C., 1 hr, read-out: Inhibitory activity (IC50: nM). Here is the method:
Using human SLC-1 expression CHO cell clone 57 obtained in Reference Example 1-10 and rat SLC-1 expression CHO cell clone 44 obtained in Reference Example 1-4, membrane fractions were prepared by the following method. In phosphate buffered saline (pH 7.4) supplemented with 5 mM EDTA (ethylenediamine tetraacetic acid) were suspended human and rat SLC-1 expression CHO cells (1×10^8) and centrifuged. Homogenate buffer (10 ml, 10 mM NaHCO3, 5 mM EDTA, pH 7.5) was added to the pellets of the cells and, using Polytron Homogeniser, the mixture was homogenated. The supernatant obtained after centrifugation at 400×g for 15 min was further centrifuged at 100,000×g for 1 hr to give precipitate of the membrane fraction. […]
The antagonistic activity of the test compound was determined as follows. […] Liquid scintillator (50 ml) was added to the glass filter and the residual radioactivity was determined by a liquid scintillation counter. Binding inhibition (%)=(radioactivity upon addition of compound and MCH−radioactivity upon addition of DMSO solution)/(radioactivity upon addition of MCH−radioactivity upon addition of DMSO solution)×100
From the binding inhibition (%), IC50 of the compound was calculated.

A further data set deals with SD (Sprague Dawley) rats. The experiment in a line: Evaluation of antidepressive action by forced swim test. Type of data set: in vivo, rat. The following applies: 3 mg/kg body weight, oral, 30 minutes before test, five minutes measured, n=10; control group 30.86±8.71. On the procedure:
By performing a forced swim test using SD (Sprague Dawley) rats (seven-week-old, male, body weight 233.3–266.9 g, purchased from Japan Clea), the antidepressive action of the compound of the present invention was evaluated.
First, a suspension of the compound of Example 19 in 0.5% methyl cellulose was orally administered to SD rats (n=10) (compound dose: 3 mg/kg body weight). Thirty minutes later, the rats were placed in a pipe (diameter 21 cm, height 50 cm) made of Plexiglass (trade name, made by Rohm & Haas, U.S.A.) containing tap water (water temperature 25±2° C., 30 cm deep). Immobility time of the rats for five minutes thereafter was measured using a digital video camera.
In addition, 0.5% methyl cellulose suspension without the compound was orally administered to SD rats (n=10), and the rats were subjected the forced swim test in the same manner as above and taken as a control group.

The structures appear in SMILES notation.

What is called melting point is the temperature of the solid-liquid transition. In general, IC50 refers to the concentration at which inhibition is half-maximal. In turn, `COc1ccc(-c2ccc(C(=O)Nc3ccc4cc(CN5CCCC5)cnc4c3)cn2)cc1` [Example 8, 6-(4-methoxyphenyl)-N-[3-(1-pyrrolidinylmethyl)-7-quinolinyl]nicotinamide] showed a melting point of 246 to 248 °C. The IC50 in data set [1] is 6 nM.

The compound `Cc1c(NC(=O)c2ccc(-c3ccc(F)cc3)cc2)ccc2cc(CN3CCCC3)cnc12` [Example 19, 4′-fluoro-N-[8-methyl-3-(1-pyrrolidinylmethyl)-7-quinolinyl][1,1′-biphenyl]-4-carboxamide] gave a melting point of 220 to 222 °C. Also, the “immobility time (seconds, mean±standard deviation)” value with SD (Sprague Dawley) rats was 15.93 ± 5.62 s.
